Assay results published in patent US8309685B2 (Celgene Avilomics Research, Inc., priority 2007, dated 2012).
Read-outs that look alike come from different tables or passages of the source.

Experiments:
[1] = target: T1, wild type HCV NS3/4A 1b protease enzyme (Hepatitis C virus genotype 1b, UniProt P26663); assay: biochemical; type: biochemical; conditions: read-out: Inhibition, WT; WT enzyme, FRET assay
T1 construct: 10× stocks of NS3/4A protease enzyme from Bioenza (Mountain View, Calif.); purchased Bioenza (Mountain View, Calif.)

[2] = target: T2, A156T mutant of the HCV NS3/4A 1b protease enzyme (Hepatitis C virus genotype 1b, UniProt P26663, A1182T); assay: HCV Protease FRET Assay (IC50), A156T mutant; type: biochemical
T2 construct: 10× stocks of NS3/4A protease enzyme from Bioenza (Mountain View, Calif.); purchased Bioenza (Mountain View, Calif.)

[3] = target: T3, D168A mutant of the HCV NS3/4A 1b protease enzyme (Hepatitis C virus genotype 1b, UniProt P26663, D1194A); assay: HCV Protease FRET Assay (IC50), D168A mutant; type: biochemical
T3 construct: 10× stocks of NS3/4A protease enzyme from Bioenza (Mountain View, Calif.); purchased Bioenza (Mountain View, Calif.)

[4] = system: cell line ET (luc-ubi-neo/ET), human Huh7 hepatoma cell line; assay: Method A: cytotoxicity in ET replicon cells (CytoTox-1); type: cell-based; conditions: concentration decreasing cell viability by 50%, 72 hr
In short: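 ET cells (Huh7 carrying luciferase HCV replicon), 5×10^3 cells/well, given six 3-fold compound concentrations in DMEM with 5% FBS. After 72 hr, while subconfluent, cell number was measured with CytoTox-1 reagent. Interferon alpha-2b served as positive control.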

[5] = target: T1, wild type HCV NS3/4A 1b protease enzyme; assay: HCV Protease FRET Assay (IC50_APP), wild type; type: biochemical; conditions: read-out: IC50_APP, WT; apparent IC50, wild type NS3/4A 1b
[6] = target: T3, D168A mutant of the HCV NS3/4A 1b protease enzyme; assay: HCV Protease FRET Assay (IC50_APP), D168A mutant; type: biochemical
[7] = read-out: Inhibition, HCV A156T, A156T enzyme, FRET assay
[8] = read-out: Inhibition, HCV D168A, D168A enzyme, FRET assay
[9] = apparent IC50, D168A mutant; read-out: IC50_APP, HCV D168A

**Q.** With C=CC(=O)NCC(=O)N1C[C@H](Oc2cc(-c3ccccc3)nc3cc(OC)ccc23)C[C@H]1C(=O)N[C@]1(C(=O)NS(=O)(=O)c2ccccc2)C[C@H]1C=C [Compound I-27, (2S,4R)-1-(2-acrylamidoacetyl)-4-(7-methoxy-2-phenylquinolin-4-yloxy)-N-((1R,2S)-1-(phenylsulfonylcarbamoyl)-2-vinylcyclopropyl)pyrrolidine-2-carboxamide] as the compound, how does the IC50 [1] read?
**A.** Its IC50 is less than 10 nM.

**Q.** What about the IC50 [2, 7] of the same compound?
**A.** Its IC50 is 10 to 100 nM.

**Q.** And the IC50 [3, 8]?
**A.** Its IC50 is 10 to 100 nM.

**Q.** What about the “Inhibition, Cytotoxicity” value [4] of the same compound?
**A.** The value was “D (IC50>1000 nM and <10,000 nM)”.

**Q.** And the IC50 [5]?
**A.** The IC50 was less than 10 nM.

**Q.** And the IC50 [6, 9]?
**A.** The IC50 was 100 to 1000 nM.

**Q.** With C=CC(=O)NC[C@H](NC(=O)OC(C)(C)C)C(=O)N1C[C@H](Oc2cc(-c3ccccc3)nc3cc(OC)ccc23)C[C@H]1C(=O)N[C@]1(C(=O)NS(=O)(=O)c2ccccc2)C[C@H]1C=C [Compound I-3, N-[(1,1-dimethylethoxy)carbonyl]-3-[(2-propenoyl)amino]-L-alanyl-(4R)-4-[(7-methoxy-2-phenyl-4-quinolinyl)oxy]-L-prolyl-1-amino-2-ethenyl-N-(phenylsulfonyl)-(1R,2S)-cyclopropanecarboxamide] as the compound, how does the IC50 [1] read?
**A.** Its IC50 is less than 10 nM.

**Q.** What about the IC50 ([2]; read-out: Comparative IC50 Values, A156T, biochemical assay) of the same compound?
**A.** The IC50 was 18 nM.

**Q.** What about the IC50 [2, 7] of the same compound?
**A.** Its IC50 is 10 to 100 nM.

**Q.** And the IC50 ([3]; read-out: Comparative IC50 Values, D168A, biochemical assay)?
**A.** Its IC50 is 45 nM.

**Q.** And the IC50 [3, 8]?
**A.** The IC50 was 10 to 100 nM.

**Q.** And the “Inhibition, Cytotoxicity” value [4]?
**A.** The value was “E (IC50≧10,000 nM)”.

**Q.** And the IC50 [5]?
**A.** The IC50 was less than 10 nM.

**Q.** What about the IC50 [6, 9] of the same compound?
**A.** Its IC50 is 1000 to 10000 nM.

**Q.** With C=C[C@@H]1C[C@]1(NC(=O)[C@@H]1C[C@@H](Oc2cc(-c3ccccc3)nc3cc(OC)ccc23)CN1C(=O)[C@H](CNC(=O)CCl)NC(=O)OC(C)(C)C)C(=O)NS(=O)(=O)c1ccccc1 [Compound I-7, N-[(1,1-dimethylethoxy)carbonyl]-3-[(chloroacetyl)amino]-L-alanyl-(4R)-4-[(7-methoxy-2-phenyl-4-quinolinyl)oxy]-L-prolyl-1-amino-2-ethenyl-N-(phenylsulfonyl)-(1R,2S)-cyclopropanecarboxamide] as the compound, how does the IC50 [1] read?
**A.** Its IC50 is less than 10 nM.

**Q.** What about the IC50 [2, 7] of the same compound?
**A.** The IC50 was 10 to 100 nM.

**Q.** What about the IC50 [3, 8] of the same compound?
**A.** The IC50 was 10 to 100 nM.

**Q.** And the “Inhibition, Cytotoxicity” value [4]?
**A.** Its value is “E (IC50≧10,000 nM)”.

**Q.** What about the IC50 [5] of the same compound?
**A.** The IC50 was less than 10 nM.

**Q.** And the IC50 ([6]; read-out: IC50_APP, HCV D168A; apparent IC50, D168A mutant)?
**A.** Its IC50 is 100 to 1000 nM.
